Test [1] has as its target T1, human recombinant Btk (Homo sapiens, UniProt Q06187).
T1 construct: purchased Invitrogen Corporation
Put plainly: Human Recombinant Btk Enzyme Assay (LLE_BTK). In kind it is biochemical. As for the experimental part:
Human Recombinant Btk Enzyme Assay
To V-bottom 384-well plates were added test compounds, human recombinant Btk (1 nM, Invitrogen Corporation), fluoresceinated peptide (1.5 μM), ATP (20 μM), and assay buffer (20 mM HEPES pH 7.4, 10 mM MgCl2, 0.015% Brij35 and 4 mM DTT in 1.6% DMSO), with a final volume of 30 μL. After incubating at room temperature for 60 min, the reaction was terminated by adding 45 μl of 35 mM EDTA to each sample. The reaction mixture was analyzed on the Caliper LABCHIP® 3000 (Caliper, Hopkinton, Mass.) by electrophoretic separation of the fluorescent substrate and phosphorylated product. Inhibition data were calculated by comparison to no enzyme control reactions for 100% inhibition and no inhibitor controls for 0% inhibition. Dose response curves were generated to determine the concentration required inhibiting 50% of kinase activity (IC50). Compounds were dissolved at 10 mM in dimethylsulfoxide (DMSO) and evaluated at eleven concentrations.
Using this assay, the following IC50 values derived by non-linear regression analysis were determined and compared to those values of certain compounds in U.S. Publication No. 2007/078136 and U.S. Publication No. 2008/045536.

Test [2] has as its system Ramos B cells with beta-lactamase reporter gene under control of an NFAT response element. Kind of test: NFAT-bla RA1 Reporter Assay (Ramos-NFAT). The test is classed as cell-based, human. The settings on record: read-out: IMM Ramos-NFAT (IC50). As for the experimental part: NFAT-bla RA1 Reporter Assay
Ramos B cells containing a stable integration of a beta-lactamase reporter gene under the control of an NFAT response element (NFAT-bla RA1, Invitrogen, K1434) at a density of 100×10^3 cells/well were incubated with test compounds at 37° C. for 30 min prior to stimulation with F(ab′)2 anti-human IgM (Jackson ImmunoResearch, 109-006-129) at 2.5 μg/ml for 4.5 hrs at 37° C. After stimulation, LiveBLAzer-FRET B/G substrate (CCF2/AM, or CCF4/AM, Invitrogen) was added to each well and incubated for 90 min at room temperature in the dark. Assay plates were read on an LJL Analyst, with raw emission values subtracted from a media-only blank containing substrate in assay media (no cells). The ratios of 460 nm/530 nm emission (405 nm excitation) were used to calculate the amount of stimulation.
For orientation: Reporter assays use an easily measured gene product as a stand-in for the process of interest.

By IC50 is commonly meant the concentration that gives 50% inhibition.

Where two headings read alike, the source gives them in different places.

T1 sequence (Q06187 whole entry): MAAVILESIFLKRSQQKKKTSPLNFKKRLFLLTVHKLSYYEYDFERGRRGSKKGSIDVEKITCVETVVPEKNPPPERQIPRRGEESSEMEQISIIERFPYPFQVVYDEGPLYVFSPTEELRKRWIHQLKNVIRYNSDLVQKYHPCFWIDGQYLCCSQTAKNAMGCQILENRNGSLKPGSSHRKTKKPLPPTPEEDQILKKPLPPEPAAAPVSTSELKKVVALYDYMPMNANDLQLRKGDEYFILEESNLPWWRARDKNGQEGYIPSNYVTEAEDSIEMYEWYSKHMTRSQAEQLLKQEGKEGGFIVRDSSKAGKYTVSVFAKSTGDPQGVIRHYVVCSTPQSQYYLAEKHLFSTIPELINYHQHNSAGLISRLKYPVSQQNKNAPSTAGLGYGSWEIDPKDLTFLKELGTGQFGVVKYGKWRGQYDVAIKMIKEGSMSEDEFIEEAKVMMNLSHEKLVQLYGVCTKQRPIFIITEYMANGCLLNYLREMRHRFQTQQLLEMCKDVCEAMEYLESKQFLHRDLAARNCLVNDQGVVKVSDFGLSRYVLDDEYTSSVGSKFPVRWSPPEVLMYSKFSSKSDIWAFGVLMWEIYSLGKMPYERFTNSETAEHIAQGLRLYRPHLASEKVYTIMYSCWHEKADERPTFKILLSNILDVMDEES

On to `CN1CCN(c2ccc(Nc3nc(N4CCC[C@@H](NC(=O)c5ccccc5)C4)c(F)cc3C(N)=O)cc2)CC1` [Example 388], for which the half-maximal inhibitory concentration (IC50) in test [1] was found to be 4 nM; in test [2] (Homo sapiens, Ramos) it was 70 nM.

As for `NC(=O)c1ccc(-c2cccc3c2CCN(C(=O)c2ccccc2)C3)nc1Nc1ccc(-c2cnco2)cc1` [Example 346], the IC50 in test [1] was 2900 nM; in test [2] (Homo sapiens, Ramos), 10000 nM.

Consider `COc1ccc([C@H](C)N[C@H]2CCC[C@H](c3nc(Nc4ccc(N5CCOCC5)cc4)c(C(N)=O)cc3F)C2)cc1` [Example 435], for which the IC50 in test [1] was 1300 nM; in test [2] (Homo sapiens, Ramos), 4500 nM.

As to `CN(C)CCc1ccc(Nc2nc(N3CCC[C@@H](NC(=O)Nc4nccs4)C3)c(F)cc2C(N)=O)cc1` [Example 458], the half-inhibitory concentration (IC50) in test [1] turned out to be 0.6 nM; in test [2] (Homo sapiens, Ramos), 30 nM; in test [2] it was 50 nM.

Consider `CN1CCC(C)(c2ccc(Nc3nc(N4CCC[C@@H](NC(=O)c5ccccc5)C4)c(F)cc3C(N)=O)cc2)CC1` [Example 518], for which the IC50 in test [1] amounted to 2 nM; in test [2] (Homo sapiens, Ramos), 30 nM.

`CN(C)S(=O)(=O)c1ccc(Nc2nc(N3CCC[C@@H](NC(=O)c4ccccc4)C3)c(F)cc2C(N)=O)cc1` [Example 508]: the IC50 in test [1] came out at 0.8 nM; in test [2] (Homo sapiens, Ramos), 140 nM.

As for `NC(=O)c1cc(F)c(N2CCC[C@@H](NC(=O)c3ccccc3)C2)nc1Nc1ccc(N2CCOCC2)cc1` [Example 422], the 50% inhibitory concentration (IC50) was found to be 20 nM in test [1] and 120 nM in test [2] (Homo sapiens, Ramos).

For the compound `CN1CCC(C)(c2ccc(Nc3nc(N4CCC[C@@H](N5CCCC5=O)C4)c(F)cc3C(N)=O)cc2)CC1` [Example 566], the half-maximal inhibitory concentration (IC50) came out at 3 nM in test [1] and 90 nM in test [2] (Homo sapiens, Ramos).

As to `C[N+](C)([O-])CCc1ccc(Nc2nc(N3CCC[C@@H](NC(=O)Nc4nccs4)C3)c(F)cc2C(N)=O)cc1` [Example 552], the half-inhibitory concentration (IC50) in test [1] came out at 1 nM; in test [2] (Homo sapiens, Ramos) it was 5400 nM.

In the case of `CN(C)CCc1ccc(Nc2nc(N3CCC[C@@H](NC(=O)Nc4nncs4)C3)c(F)cc2C(N)=O)cc1` [Example 462], the 50% inhibitory concentration (IC50) in test [1] worked out at 2 nM; in test [2] (Homo sapiens, Ramos), 250 nM.

`NC(=O)c1cc(F)c(C2CCCC(OC(=O)c3ccccc3)C2)nc1Nc1ccc(N2CCOCC2)cc1` (stereo not shown) [Example 430]: the half-inhibitory concentration (IC50) in test [1] amounted to 740 nM; in test [2] (Homo sapiens, Ramos), 10000 nM.

With `CN1CCN(c2ccc(Nc3nc(N4CCC[C@@H](NC(=O)Nc5nccs5)C4)ccc3C(N)=O)cc2)CC1` [Example 284], the IC50 in test [1] was 7 nM; in test [2] (Homo sapiens, Ramos), 60 nM.

Turning to `COc1ccc([C@H](C)N[C@H]2CCC[C@@H](c3nc(Nc4ccc(N5CCOCC5)cc4)c(C(N)=O)cc3F)C2)cc1` [Example 436], the half-maximal inhibitory concentration (IC50) in test [1] worked out at 2200 nM; in test [2] (Homo sapiens, Ramos), 7900 nM.

With `CN1CCN(c2ccc(Nc3nc(N4CCC[C@@H](N(C)C(=O)c5ccccc5)C4)c(F)cc3C(N)=O)cc2)CC1` [Example 418], the half-inhibitory concentration (IC50) in test [1] came out at 2 nM; in test [2] (Homo sapiens, Ramos), 380 nM.

Turning to `CN1CCC(C)(c2ccc(Nc3nc(N4CCC[C@@H](NC(=O)Nc5ncc(F)s5)C4)c(F)cc3C(N)=O)cc2)CC1` [Example 495], the half-inhibitory concentration (IC50) in test [1] came to 1 nM; in test [2] (Homo sapiens, Ramos) it was 80 nM.

The values are drawn from patent US8586751B2, “Nicotinamide compounds useful as kinase modulators” (Bristol-Myers Squibb Company, priority 2009, dated 2013).
